Holding throughout (assay): Antibacterial activity (MIC), agar dilution per CLSI
What all share (assay type): cell-based
In general terms: In agar dilution, organisms are placed on agar that contains the substance at set levels.

In one assay the test system is E. coli M 50. Conditions: E. coli M 50 expressing ESBL, agar dilution. On the procedure:
(§1) The biological activity of representative compounds according to the invention against various bacterial strains was investigated. In a typical study, overnight grown bacterial cultures were diluted appropriately and inoculated on the agar media containing doubling dilutions of the test compounds. Observation for growth or no growth was performed after 16-20 hours of incubation at 35±2° C. in ambient air. The overall procedure was performed as per Clinical and Laboratory Standards Institute (CLSI) recommendations (Clinical and Laboratory Standards Institute (CLSI), Performance Standards for Antimicrobial Susceptibility Testing, 20th Informational Supplement, M 100-S20, Volume 30, No. 1, 2010).
The activities are expressed as MICs (mcg/ml).

The subject of a further assay is E. coli 7 MP. Conditions: Table 3, E. coli 7 MP expressing ESBL. On the procedure:
as §1
(§2) Table 3 details antibacterial activity of representative compounds according to the invention against various E. coli strains (NCTC 13351, M 50 and 7 MP) expressing ESBL (Extended Spectrum Beta Lactamases).

The subject of the next assay is E. coli NCTC 13351. Conditions: 16-20 hours, 35±2° C. On the procedure:
as §1, §2

[1] abbreviates: Table 3, E. coli NCTC 13351 expressing ESBL.
Setting [2] is: Escherichia coli, M50, Table 3, read-out: MIC.
The mark [3] stands for this setting: Escherichia coli, read-out: MIC.
The mark [4] stands for this setting: Escherichia coli, NCTC13351, Table 3, E. coli NCTC 13351 expressing ESBL, read-out: MIC.

For orientation: MIC means the smallest concentration in the dilution series that meets the test's criterion for growth inhibition.

SMILES strings stand for the structures. Converted amounts (≈) assume the structure as drawn. Read-outs that look alike come from different tables or passages of the source.

With `O=C1CC[C@@H](C(=O)NNC(=O)[C@H]2CC[C@@H]3CN2C(=O)N3OS(=O)(=O)[O-])N1.[Na+]` (relative stereo) [Example 52, Sodium salt of trans-sulfuric acid mono-[2-(N′—[(S)-5-oxo-pyrrolidin-2-carbonyl]-hydrazinocarbonyl)-7-oxo-1,6-diaza-bicyclo[3.2.1]oct-6-yl]ester], the results for the MIC with E. coli M 50 (Table 3), against E. coli 7 MP and in the assay on E. coli NCTC 13351 (setting [1]) were 0.5 µg/mL, 2 µg/mL and 0.5 µg/mL, respectively.
`CC(C)(CN)C(=O)NNC(=O)[C@H]1CC[C@@H]2CN1C(=O)N2OS(=O)(=O)O` (relative stereo) [Example 22, trans-sulfuric acid mono-[2-(N′-(3-amino-2,2-dimethyl-propioyl)-hydrazinocarbonyl)-7-oxo-1,6-diaza-bicyclo[3.2.1]oct-6-yl]ester]: the MIC in the assay on E. coli M 50 (setting [2]) is 4 µg/mL (≈ 10.5 µM); in the assay with E. coli 7 MP (setting [3]), 8 µg/mL (≈ 21.1 µM); with E. coli NCTC 13351 (setting [4]) it was 4 µg/mL (≈ 10.5 µM).
Take `CC(C)(C#N)C(=O)NNC(=O)[C@H]1CC[C@@H]2CN1C(=O)N2OS(=O)(=O)[O-].[Na+]` (relative stereo) [Example 51, Sodium salt of trans-sulfuric acid mono-[2-(N′-(cyano-dimethyl-acetyl)-hydrazinocarbonyl)-7-oxo-1,6-diaza-bicyclo[3.2.1]oct-6-yl]ester]: the MIC was 16 µg/mL with E. coli M 50 (Table 3), 32 µg/mL in the assay on E. coli 7 MP and 16 µg/mL against E. coli NCTC 13351 (setting [1]).
Take `CC(C)(C)OC(=O)NNC(=O)[C@H]1CC[C@@H]2CN1C(=O)N2OS(=O)(=O)[O-].[Na+]` (relative stereo) [Example 44, Sodium salt of trans-N′-(7-oxo-6-sulfooxy-1,6-diaza-bicyclo[3.2.1]octane-2-carboxylic acid)-hydrazinecarboxylic acid tert-butyl ester]: the MIC was found to be 32 µg/mL with E. coli M 50 (Table 3), 64 µg/mL against E. coli 7 MP and 32 µg/mL against E. coli NCTC 13351 (setting [1]).
In the case of `O=C(CC[C@@H]1CCCN1)NNC(=O)[C@H]1CC[C@@H]2CN1C(=O)N2OS(=O)(=O)O` (relative stereo) [Example 31, trans-sulfuric acid mono-[2-(N′—[((S)-3-pyrrolidin-2-yl)-propionyl]-hydrazinocarbonyl)-7-oxo-1,6-diaza-bicyclo[3.2.1]oct-6-yl]ester], the MIC is 1 µg/mL (≈ 2.47 µM) with E. coli M 50 (Table 3), 4 µg/mL (≈ 9.87 µM) against E. coli 7 MP and 1 µg/mL (≈ 2.47 µM) against E. coli NCTC 13351 (setting [1]).
For the compound `NNC(=O)[C@H]1CC[C@@H]2CN1C(=O)N2OS(=O)(=O)O` (relative stereo) [Example 6, trans-sulfuric acid mono-[2-hydrazinocarbonyl-7-oxo-1,6-diaza-bicyclo[3.2.1]oct-6-yl]ester], the MIC was 64 µg/mL (≈ 228 µM) in the assay on E. coli M 50 (setting [2]), 128 µg/mL (≈ 457 µM) in the assay with E. coli 7 MP (setting [3]) and 32 µg/mL (≈ 114 µM) in the assay on E. coli NCTC 13351 (setting [4]).
In the case of `O=C(NNC(=O)[C@H]1CC[C@@H]2CN1C(=O)N2OS(=O)(=O)O)[C@H]1CCNC1` (mixture of isomers) [Example 33, trans-sulfuric acid mono-[2-(N′—[(S)-pyrrolidin-3-carbonyl]-hydrazinocarbonyl)-7-oxo-1,6-diaza-bicyclo[3.2.1]oct-6-yl]ester], the figures for the MIC in the assay on E. coli M 50 (setting [2]), in the assay with E. coli 7 MP (setting [3]) and with E. coli NCTC 13351 (setting [4]) were 0.5 µg/mL, 2 µg/mL and 1 µg/mL, respectively.
Turning to `O=C(NNC(=O)[C@H]1CC[C@@H]2CN1C(=O)N2OS(=O)(=O)O)C1CNC1` (relative stereo) [Example 28, trans-sulfuric acid mono-[2-(N′-[azetidin-3-carbonyl]-hydrazinocarbonyl)-7-oxo-1,6-diaza-bicyclo[3.2.1]oct-6-yl]ester], the minimal inhibitory concentration (MIC) with E. coli M 50 (setting [2]) was 1 µg/mL (≈ 2.75 µM); in the assay on E. coli 7 MP (setting [3]) it was 4 µg/mL (≈ 11 µM); with E. coli NCTC 13351 (setting [4]), 1 µg/mL (≈ 2.75 µM).
Turning to `O=C(NNC(=O)[C@H]1CCCCN1)[C@H]1CC[C@@H]2CN1C(=O)N2OS(=O)(=O)O` (mixture of isomers) [Example 18, trans-sulfuric acid mono-[2-(N′—((R)-piperidin-2-carbonyl)-hydrazinocarbonyl)-7-oxo-1,6-diaza-bicyclo[3.2.1]oct-6-yl]ester], the minimal inhibitory concentration (MIC) in the assay on E. coli M 50 (setting [2]) was determined as 4 µg/mL; in the assay with E. coli 7 MP (setting [3]) it was 32 µg/mL; in the assay with E. coli NCTC 13351 (setting [4]) it was 8 µg/mL.
For `O=C(O)CON1C(=O)N2C[C@H]1CC[C@H]2C(=O)NNC(=O)[C@@H]1CCCNC1` [Example 4, trans-{7-oxo-2-[N′—((R)-piperidin-3-carbonyl)-hydrazinocarbonyl]-1,6-diaza-bicyclo[3.2.1]-oct-6-yloxy}-acetic acid], the values for the MIC in the assay on E. coli M 50 (setting [2]), with E. coli 7 MP (setting [3]) and with E. coli NCTC 13351 (setting [4]) were 8 µg/mL (≈ 21.7 µM), 16 µg/mL (≈ 43.3 µM) and 8 µg/mL (≈ 21.7 µM), respectively.
Turning to `CC(N)CC(=O)NNC(=O)[C@H]1CC[C@@H]2CN1C(=O)N2OS(=O)(=O)O` (mixture of isomers) [Example 21, trans-sulfuric acid mono-[2-(N′—((RS)-3-amino-butanoyl)-hydrazinocarbonyl)-7-oxo-1,6-diaza-bicyclo[3.2.1]oct-6-yl]ester], the values for the minimum inhibitory concentration (MIC) in the assay with E. coli M 50 (setting [2]), in the assay on E. coli 7 MP (setting [3]) and in the assay with E. coli NCTC 13351 (setting [4]) were 1 µg/mL (≈ 2.74 µM), 4 µg/mL (≈ 10.9 µM) and 1 µg/mL (≈ 2.74 µM), respectively.
As for `O=C(CCC1CCCCN1)NNC(=O)[C@H]1CC[C@@H]2CN1C(=O)N2OS(=O)(=O)O` (mixture of isomers) [Example 37, trans-sulfuric acid mono-[2-(N′—[(RS)-3-piperidin-2-yl-propionyl]-hydrazinocarbonyl)-7-oxo-1,6-diaza-bicyclo[3.2.1]oct-6-yl]ester], the MIC in the assay with E. coli M 50 (setting [2]) was determined as 2 µg/mL (≈ 4.77 µM); with E. coli 7 MP (setting [3]), 4 µg/mL (≈ 9.54 µM); in the assay on E. coli NCTC 13351 (setting [4]) it was 2 µg/mL (≈ 4.77 µM).
On to `CS(=O)(=O)N1CCC[C@H]1C(=O)NNC(=O)[C@H]1CC[C@@H]2CN1C(=O)N2OS(=O)(=O)[O-].[Na+]` (relative stereo) [Example 50, Sodium salt of trans-sulfuric acid mono-[2-(N′—[(S)-1-methanesulfonyl-pyrrolidin-2-carbonyl]-hydrazinocarbonyl)-7-oxo-1,6-diaza-bicyclo[3.2.1]oct-6-yl]ester], for which the MIC against E. coli M 50 (Table 3) was 16 µg/mL; with E. coli 7 MP, 32 µg/mL; against E. coli NCTC 13351 (setting [1]), 16 µg/mL.
Turning to `O=C(NNC(=O)[C@H]1CC[C@@H]2CN1C(=O)N2OS(=O)(=O)O)[C@@H]1COCCN1` (mixture of isomers) [Example 39, trans-sulfuric acid mono-[2-(N′—((S)-morpholin-3-carbonyl)-hydrazinocarbonyl)-7-oxo-1,6-diaza-bicyclo[3.2.1]oct-6-yl]ester], the MIC in the assay on E. coli M 50 (setting [2]) came to 2 µg/mL; with E. coli 7 MP (setting [3]), 8 µg/mL; with E. coli NCTC 13351 (setting [4]), 4 µg/mL.
For the compound `NCCCCC(=O)NNC(=O)[C@H]1CC[C@@H]2CN1C(=O)N2OS(=O)(=O)O` (relative stereo) [Example 25, trans-sulfuric acid mono-[2-(N′-(5-amino-pentanoyl)-hydrazinocarbonyl)-7-oxo-1,6-diaza-bicyclo[3.2.1]oct-6-yl]ester], the MIC in the assay on E. coli M 50 (setting [2]) was determined as 1 µg/mL (≈ 2.64 µM); in the assay on E. coli 7 MP (setting [3]) it was 4 µg/mL (≈ 10.5 µM); in the assay on E. coli NCTC 13351 (setting [4]), 1 µg/mL (≈ 2.64 µM).
As for `NC(C(=O)NNC(=O)[C@H]1CC[C@@H]2CN1C(=O)N2OS(=O)(=O)O)c1ccccc1` (mixture of isomers) [Example 20, trans-sulfuric acid mono-[2-(N′—((RS)-1-amino-1-phenyl-acetyl)-hydrazinocarbonyl)-7-oxo-1,6-diaza-bicyclo[3.2.1]oct-6-yl]ester], the MIC came out at 2 µg/mL (≈ 4.84 µM) against E. coli M 50 (Table 3), 8 µg/mL (≈ 19.4 µM) against E. coli 7 MP and 2 µg/mL (≈ 4.84 µM) against E. coli NCTC 13351 (setting [1]).

(Values after US9381200B2, “Nitrogen containing compounds” (WOCKHARDT LIMITED, priority 2011, dated 2016).)
